Data on 62 compounds can be found in PubChem BioAssay AID624350 (Johns Hopkins Ion Channel Center, 2012).

Broadly, the IC50 is the concentration that gives 50% inhibition.

Where “and” joins values, the source holds several entries; their conditions need not be identical. Equal entries are not always repeated. Calls of active or inactive are those of the source.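 The calls were made as follows: active = over 50% block of the Kir2.1 potassium channel by compound at 30 µM; inactive = the rest.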

Sequence of Inward rectifier potassium channel 2 (Mus musculus) (P35561 whole entry, looked up): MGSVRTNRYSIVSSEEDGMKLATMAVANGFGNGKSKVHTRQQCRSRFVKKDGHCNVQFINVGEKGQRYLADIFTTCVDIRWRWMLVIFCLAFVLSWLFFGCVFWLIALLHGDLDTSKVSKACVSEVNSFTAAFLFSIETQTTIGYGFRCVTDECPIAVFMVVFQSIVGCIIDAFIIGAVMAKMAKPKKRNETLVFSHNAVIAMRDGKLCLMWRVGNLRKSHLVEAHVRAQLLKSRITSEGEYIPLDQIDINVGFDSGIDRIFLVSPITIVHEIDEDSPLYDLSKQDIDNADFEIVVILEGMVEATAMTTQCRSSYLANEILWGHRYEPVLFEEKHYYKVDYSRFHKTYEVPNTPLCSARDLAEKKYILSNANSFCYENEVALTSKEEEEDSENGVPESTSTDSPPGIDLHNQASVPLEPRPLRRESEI

The test concerns the target Inward rectifier potassium channel 2 (Mus musculus) (UniProt P35561). Put plainly: blockers of inward rectifier channel Kir2.1 – cell-based, HEK293, thallium flux, FluxOR fluorescence, dose response (AID 624350). The note with it: HEK293 Kir2.1, FluxOR thallium flux fluorescence, 20 min.
With `Cc1ccc(C)c(OCCCNCc2ccc(Cl)c(Cl)c2)c1`, the IC50 was 13.4 µM.

Consider `O=S(=O)(NCc1cc(F)cc(F)c1)c1ccc(Br)cc1`, for which the IC50 was 15.6 µM.

Consider `COc1ccccc1CCNS(=O)(=O)c1ccc(Br)cc1`, for which the IC50 is 7.81 µM.

For `C[C@@H](c1ccccc1)N(Cc1ccccc1)S(=O)(=O)c1ccc(Br)cc1`, the result was inactive.

For `O=S(=O)(c1ccc(Br)cc1)N1CCc2ccccc21`, the IC50 was 17.9 µM.

As for `CC(C)Cn1c(Cc2ccccc2)nc2ccccc21`, the IC50 was 28.4 µM.

As for `O=S(=O)(NCc1ccccn1)c1ccc(Br)cc1`, the result was inactive.

Take `Cc1ccc(C)c(OCCCNc2ccccc2)c1`: the outcome was inactive.

On to `COCc1nc2ccccc2n1Cc1ccccc1`, for which the outcome was inactive.

For the compound `COc1ccc(CCNS(=O)(=O)c2ccc(Br)cc2)cc1OC`, the result was inactive.

Take `O=S(=O)(NCc1cccnc1)c1ccc(Br)cc1`: the outcome was inactive.

With `c1ccc(Cc2nc3ccccc3n2Cc2ccccc2)cc1`, the IC50 is 29.9 µM.

In the case of `Cc1ccc(C)c(OCCCNCCc2ccccc2)c1`, the IC50 is 10.6 µM.

Turning to `O=S(=O)(c1ccc(F)cc1)N1CCCc2ccccc21`, the IC50 was 11.9 µM.

Turning to `O=S(=O)(NC1Cc2ccccc2C1)c1ccc(Br)cc1`, the IC50 is 28.4 µM.

Regarding `Cc1ccc(C)c(OCCCNCC2CCCCC2)c1`, the IC50 was 18.9 µM.

Turning to `CN(Cc1ccccc1)S(=O)(=O)c1ccc(Br)cc1`, the outcome was inactive.

In the case of `O=S(=O)(c1cccc(F)c1)N1CCCc2ccccc21`, the IC50 is 12.6 µM.

On to `O=S(=O)(NCc1ccco1)c1ccc(Br)cc1`, for which the result was inactive.

With `CN1CCN(S(=O)(=O)c2ccc(Br)cc2)CC1`, the outcome was inactive.

Consider `COCc1nc2ccccc2n1CCN1CCOCC1`, for which the result was inactive.

As to `O=C(c1ccc(F)cc1)N1CCCc2ccccc21`, the outcome was inactive.

With `O=S(=O)(NCc1cccc2ccccc12)c1ccc(Br)cc1`, the outcome was inactive.

As to `O=S(=O)(NCc1ccc(F)cc1F)c1ccc(Br)cc1`, the IC50 was 16.3 µM.

For `CCN(CC)CCCOc1cc(C)ccc1C`, the result was inactive.

Turning to `Cc1ccc(C)c(OCCCOCc2ccccc2)c1`, the result was inactive.

With `Cc1ccc(C)c(OCCCNCc2ccco2)c1`, the IC50 entry is “inactive”.

Take `C[C@@H](NC(=O)c1ccc(Br)cc1)c1ccccc1`: the result was inactive.

In the case of `O=S(=O)(NCc1cccc(F)c1)c1ccc(Br)cc1`, the outcome was inactive.

With `COCc1nc2ccccc2n1C1CC1`, the result was inactive.

Consider `O=S(=O)(c1ccccc1F)N1CCCc2ccccc21`, for which the IC50 is 11.2 µM.

As to `O=[N+]([O-])c1ccc(CNS(=O)(=O)c2ccc(Br)cc2)cc1`, the IC50 was 17.8 µM.

For the compound `C[C@H](NC(=O)c1ccc(Br)cc1)c1ccccc1`, the result was inactive.

Turning to `O=S(=O)(c1ccc(Br)cc1)N1CCN(c2ccc(Cl)c(Cl)c2)CC1`, the outcome was inactive.

Consider `Cc1ccc(C)c(OCCCNCCO)c1`, for which the result was inactive.

Turning to `O=S(=O)(c1ccc(Br)cc1)N1CCCc2ccccc21`, the IC50 was 15.8 µM and 13.4 µM.

With `O=S(=O)(NCc1ccccc1)c1ccc(Br)cc1`, the result was inactive.

Turning to `O=S(=O)(NCC(c1ccccc1)c1ccccc1)c1ccc(Br)cc1`, the outcome was inactive.

With `O=S(=O)(c1ccc(Br)cc1)N1CCCCC1`, the outcome was inactive.

As for `Cc1ccc(C)c(OCCCNCc2cccc3ccccc23)c1`, the IC50 was 11.2 µM.

`O=S(=O)(NCCc1ccccc1)c1ccc(Br)cc1`: the outcome was inactive.

For the compound `O=S(=O)(c1ccccc1Br)N1CCCc2ccccc21`, the IC50 was 10 µM.

In the case of `O=S(=O)(NCCc1c[nH]c2ccccc12)c1ccc(Br)cc1`, the IC50 is 13.4 µM.

Consider `Cc1ccc(C)c(OCCCNCc2ccccc2)c1`, for which the IC50 was 8.91 µM.

For `COCc1nc2ccccc2n1CC(C)C`, the outcome was inactive.

Regarding `Cc1ccc(C)c(OCCCNC[C@H](C)O)c1`, the result was inactive.

`C[C@@H](NS(=O)(=O)c1ccc(Br)cc1)c1cccc2ccccc12`: the IC50 was 9.46 µM.

Regarding `CCN(Cc1ccncc1)S(=O)(=O)c1ccc(Br)cc1`, the IC50 was 23 µM.

On to `Cc1ccc(C)c(OCCCN(C)Cc2ccccc2)c1`, for which the IC50 is 11.9 µM.

For `Cc1ccc(C)c(OCCCN2CCOCC2)c1`, the result was inactive.

As to `c1ccc(Cc2nc3ccccc3n2C2CC2)cc1`, the outcome was inactive.

`O=S(=O)(NCc1ccc(F)c(F)c1)c1ccc(Br)cc1`: the IC50 is 11.3 µM.

Consider `c1ccc(Cc2nc3ccccc3n2-c2ccccc2)cc1`, for which the IC50 is 15 µM.

For `O=S(=O)(N[C@H]1c2ccccc2C[C@H]1O)c1ccc(Br)cc1`, the outcome was inactive.

As to `O=S(=O)(NCc1ccncc1)c1ccc(Br)cc1`, the result was inactive.

For the compound `Cc1ccc(C)c(OCCCN2CCCCC2)c1`, the outcome was inactive.

`O=S(=O)(c1cccc(Br)c1)N1CCCc2ccccc21`: the IC50 is 12.6 µM.

Turning to `Cc1ccc(C)c(OCCCN(C)CCO)c1`, the outcome was inactive.

As to `COCc1nc2ccccc2n1-c1ccccc1`, the result was inactive.

In the case of `COc1ccc(N2CCN(S(=O)(=O)c3ccc(Br)cc3)CC2)cc1`, the result was inactive.

For the compound `O=S(=O)(c1ccc(Br)cc1)N1CCC(c2ccccc2)CC1`, the result was inactive.

In the case of `Cc1ccc(C)c(OCCCNC[C@@H](C)O)c1`, the IC50 entry was “inactive”.
